Assays:
[1] = biological target: T1, KCNQ2/3 channels (Homo sapiens, UniProt O43525+O43526); experiment: Fluorescence assay using a voltage sensitive dye (fluorimetry); format: cell-based; conditions: CHO-K1 cells expressing KCNQ2/3 channels; for EC50: agonistic activity; for Emax: relative to retigabine = 100%, read-out: Fluorimetry % efficacy (retigabine = 100%)
T1 construct: expressed in transfected cells
Procedure: Fluorescence Assay using a Voltage Sensitive Dye
Human CHO—K1 cells expressing KCNQ2/3 channels are cultivated adherently at 37° C., 5% CO2 and 95% humidity in cell culture bottles (e.g. 80 cm^2 TC flasks, Nunc) with DMEM-high glucose (Sigma Aldrich, D7777) including 10% FCS (PAN Biotech, e.g. 3302-P270521) or alternatively MEM Alpha Medium (1×, liquid, Invitrogen, #22571), 10% fetal calf serum (FCS) (Invitrogen, #10270-106, heat-inactivated) and the necessary selection antibiotics.
Before being sown out for the measurements, the cells are washed with a 1×DPBS buffer without Ca^2+/Mg^2+ (e.g. Invitrogen, #14190-094) and detached from the bottom of the culture vessel by means of Accutase (PAA Laboratories, #L11-007) (incubation with Accutase for 15 min at 37° C.). The cell count then present is determined using a CASY™ cell counter (TCC model, Schärfe System) in order subsequently to apply, depending on the density optimization for the individual cell line, 20,000-30,000 cells/well/100 μl of the described nutrient medium to 96-well measuring plates of the Corning™ CellBIND™ type (Flat Clear Bottom Black Polystyrene Microplates, #3340). Incubation is then carried out for one hour at room temperature, without gassing or adjusting the humidity, followed by incubation for 24 hours at 37° C., 5% CO2 and 95% humidity.
The voltage-sensitive fluorescent dye from the Membrane Potential Assay Kit (Red™ Bulk format part R8123 for FLIPR, MDS Analytical Technologies™) is prepared by dissolving the contents of a vessel Membrane Potential Assay Kit Red Component A in 200 ml of extracellular buffer (ES buffer, 120 mM NaCl, 1 mM KCl, 10 mM HEPES, 2 mM CaCl2, 2 mM MgCl2, 10 mM glucose; pH 7.4). After removal of the nutrient medium, the cells are washed with 200 μl of ES buffer, then covered with a layer of 100 μl of the dye solution prepared above and incubated for 45 min at room temperature with the exclusion of light.
The fluorescence measurements are carried out with a BMG Labtech FLUOstar™, BMG Labtech NOVOstar™ or BMG Labtech POLARstar™ instrument (525 nm excitation, 560 nm emission, Bottom Read mode). After incubation of the dye, 50 μl of the test substances in the desired concentrations, or 50 μl of ES buffer for control purposes, are introduced into separate cavities of the measuring plate and incubated for 30 min at room temperature while being shielded from light. The fluorescence intensity of the dye is then measured for 5 min and the fluorescence value F1 of each well is thus determined at a given, constant time. 15 μl of a […] KCl solution ([…]) are then added to each well. The change in fluorescence is subsequently measured until all the relevant measured values have been obtained (mainly 5-30 min). At a given time after KCl application, a fluorescence value F2 is determined, in this case at the time of the fluorescence peak.
For calculation, the fluorescence intensity F2 is compared with the fluorescence intensity F1, and the agonistic activity of the target compound on the potassium channel is determined therefrom. F2 and F1 are calculated as follows: […]
In order to determine whether a substance has agonistic activity,
A substance has an agonistic activity on the potassium channel when
[formula] it is possible to conclude that a target compound has agonistic activity if an increase in
Calculations of EC50 values are carried out with the aid of ‘Prism v4.0’ software (GraphPad Software™).

[2] = test system: formalin-induced pain behaviour; experiment: Formalin test, mouse (phase 2, chronic pain component); format: in vivo; conditions: change in percent compared with vehicle control
Procedure: Formalin Test, Mouse The formalin test (Dubuisson, D. and Dennis, S. G., 1977, Pain, 4, 161-174) represents a model for both acute and chronic pain. By means of a single formalin injection into the dorsal side of a rear paw, a biphasic nociceptive reaction is induced in freely mobile test animals; the reaction is detected by observing three behaviour patterns which are clearly distinguishable from one another. The reaction is two-phase: phase 1=immediate reaction (duration up to 10 min; shaking of the paw, licking), phase 2=late reaction (after a rest phase; likewise shaking of the paw, licking; duration up to 60 min). The 1st phase reflects a direct stimulation of the peripheral nocisensors with high spinal nociceptive input (acute pain phase); the 2nd phase reflects a spinal and peripheral hypersensitization (chronic pain phase). In the studies described here, the chronic pain component (phase 2) has been evaluated. Formalin in a volume of 20 μl and a concentration of 1% is administered subcutaneously into the dorsal side of the right rear paw of each animal. The specific changes in behaviour, such as lifting, shaking or licking of the paw (score 3, Dubuisson & Dennis, 1977), are observed and recorded in the observation period of 21 to 24 minutes following the formalin injection. The behaviour of the animals after administration of the substance (n=10 per dose of substance) was compared with a control group which received vehicle (n=10). On the basis of the quantification of the pain behaviour, the action of the substance in the formalin test was determined as the change in percent compared with the control. The ED50 calculations (ED50=mean effective dose) were carried out by means of regression analysis according to the method of Litchfield and Wilcoxon (Litchfield, J. T., Wilcoxon, J. J., 1949, J. Pharmacol. Exp. Ther. 96, 99—113). The time of administration of the compound before the formalin injection was chosen as 5 min in the case of intravenous administration and 30 min in the case of oral administration.

O=C(CC1CCCCC1)Nc1cc2ccccc2nc1SCCS(=O)(=O)c1ccccc1 [Example 1, 2-cyclohexyl-N-(2-(2-(phenylsulfonyl)ethylthio)quinolin-3-yl)acetamide] gave an EC50 [1] of 253 nM and an Emax [1] of 80%.
Work on O=C(Cc1cccs1)Nc1cc2ccccc2nc1SCCS(=O)(=O)c1ccccc1 [Example 2, N-(2-(2-(phenylsulfonyl)ethylthio)quinolin-3-yl)-2-(thiophen-2-yl)acetamide] yielded an EC50 [1] of 67 nM and an Emax [1] of 80%.
Compound O=C(CCC1CCCCC1)Nc1cc2ccccc2nc1SCCS(=O)(=O)c1ccccc1 [Example 3, 3-Cyclohexyl-N-(2-(2-(phenylsulfonyl)ethylthio)quinolin-3-yl)propanamide] has an EC50 [1] of 174 nM and an Emax [1] of 97%.
For CCCCCSc1nc2ccccc2cc1NC(=O)Cc1cccs1 [Example 4, N-(2-(pentylthio)quinolin-3-yl)-2-(thiophen-2-yl)acetamide], the EC50 [1] was 107 nM and the Emax [1] was 60%.
O=C(Cc1cccs1)Nc1cc2ccccc2nc1SCCSc1ccccc1 [Example 6, N-(2-(2-(phenylthio)ethylthio)quinolin-3-yl)-2-(thiophen-2-yl)acetamide] showed an Emax [1] of 25%.
In the case of CCSc1nc2ccccc2cc1NC(=O)Cc1cccs1 [Example 7, N-(2-(ethylthio)quinolin-3-yl)-2-(thiophen-2-yl)acetamide], the EC50 [1] is reported as 156 nM, the Emax [1] is reported as 93% and the “Formalin Test mouse IV effect @ dose [mg/kg]” value ([2]; 1 mg/kg) is reported as 24% @ 1.
Work on CCSc1nc2ccccc2cc1NC(=O)CC(C)(C)C [Example 9, N-(2-(ethylthio)quinolin-3-yl)-3,3-dimethylbutanamide] yielded an EC50 [1] of 414 nM and an Emax [1] of 142%.
Work on CCSc1nc2cc(C(F)(F)F)ccc2cc1NC(=O)Cc1cccs1 [Example 10, N-[2-Ethylsulfanyl-7-(trifluoromethyl)quinolin-3-yl]-2-thiophen-2-yl-acetamide] yielded an EC50 [1] of 1150 nM and an Emax [1] of 57%.
CCSc1nc2cc(C(F)(F)F)ccc2cc1NC(=O)CC(C)(C)C [Example 11, N-[2-ethylsulfanyl-7-(trifluoromethyl)-quinolin-3-yl]-3,3-dimethyl-butyramide] was tested, and the Emax [1] was 35%.
CCSc1nc2cc(C(F)(F)F)ccc2cc1NC(=O)CCC1CCCC1 [Example 12, 3-cyclopentyl-N-[2-ethylsulfanyl-7-(trifluoromethyl)-quinolin-3-yl]propionamide] gave an EC50 [1] of 5020 nM and an Emax [1] of 62%.
Work on CCSc1nc2ccccc2cc1NC(=O)CC1CCCCC1 [Example 13, 2-Cyclohexyl-N-(2-ethylsulfanyl-quinolin-3-yl)-acetamide] yielded an EC50 [1] of 150 nM and an Emax [1] of 101%.
CCSc1nc2ccccc2cc1NC(=O)CC1CC2CCC1C2 (stereo not shown) [Example 14, 2-(5-bicyclo[2.2.1]heptanyl)-N-(2-ethylsulfanyl-quinolin-3-yl)-acetamide] showed an EC50 [1] of 204 nM and an Emax [1] of 179%.
In the case of CCSc1nc2ccccc2cc1NC(=O)CCC1CCCC1 [Example 15, 3-cyclopentyl-N-(2-ethylsulfanyl-quinolin-3-yl)-propionamide], the EC50 [1] is reported as 82 nM, the Emax [1] is reported as 143% and the “Formalin Test mouse IV effect @ dose [mg/kg]” value ([2]; 1 mg/kg) is reported as 17% @ 1.
With CCSc1nc2cc(C(F)(F)F)ccc2cc1NC(=O)CC1CC2CCC1C2 (stereo not shown) [Example 16, 2-(5-bicyclo[2.2.1]heptanyl)-N-[2-ethylsulfanyl-7-(trifluoromethyl)-quinolin-3-yl]-acetamide] the EC50 [1] was 647 nM and the Emax [1] was 66%.
CCSc1nc2cc(C(F)(F)F)ccc2c(C)c1NC(=O)CCC1CCCC1 [Example 17, 3-cyclopentyl-N-[2-ethylsulfanyl-4-methyl-7-(trifluoromethyl)-quinolin-3-yl]-propionamide] was tested, and the EC50 [1] was 66 nM, the Emax [1] was 107% and the “Formalin Test mouse IV effect @ dose [mg/kg]” value ([2]; 0.68 mg/kg) was 90% @ 0.68.
With CCSc1nc2cc(C(F)(F)F)ccc2c(C)c1NC(=O)Cc1cccs1 [Example 18, N-[2-ethylsulfanyl-4-methyl-7-(trifluoromethyl)-quinolin-3-yl]-2-thiophen-2-yl-acetamide] the EC50 [1] was 94 nM, the Emax [1] was 140% and the “Formalin Test mouse IV effect @ dose [mg/kg]” value ([2]; 1 mg/kg) was 43% @ 1.

Source: patent US8207342B2, “Substituted 3-amino-2-mercaptoquinolines as KCNQ2/3 modulators” (Gruenenthal GmbH, priority 2009, dated 2012)
